{"source": "patent US9518066B2", "about": "“GAK modulators” (KATHOLIEKE UNIVERSITEIT LEUVEN, priority 2013, dated 2016)", "molecular_target": "T1, GAK kinase (Homo sapiens, UniProt O14976)", "T1 construct": "made in house; host or cells: E. coli host derived from the BL21 strain, infected with T7 phage", "T1 sequence (O14976 1-1311)": "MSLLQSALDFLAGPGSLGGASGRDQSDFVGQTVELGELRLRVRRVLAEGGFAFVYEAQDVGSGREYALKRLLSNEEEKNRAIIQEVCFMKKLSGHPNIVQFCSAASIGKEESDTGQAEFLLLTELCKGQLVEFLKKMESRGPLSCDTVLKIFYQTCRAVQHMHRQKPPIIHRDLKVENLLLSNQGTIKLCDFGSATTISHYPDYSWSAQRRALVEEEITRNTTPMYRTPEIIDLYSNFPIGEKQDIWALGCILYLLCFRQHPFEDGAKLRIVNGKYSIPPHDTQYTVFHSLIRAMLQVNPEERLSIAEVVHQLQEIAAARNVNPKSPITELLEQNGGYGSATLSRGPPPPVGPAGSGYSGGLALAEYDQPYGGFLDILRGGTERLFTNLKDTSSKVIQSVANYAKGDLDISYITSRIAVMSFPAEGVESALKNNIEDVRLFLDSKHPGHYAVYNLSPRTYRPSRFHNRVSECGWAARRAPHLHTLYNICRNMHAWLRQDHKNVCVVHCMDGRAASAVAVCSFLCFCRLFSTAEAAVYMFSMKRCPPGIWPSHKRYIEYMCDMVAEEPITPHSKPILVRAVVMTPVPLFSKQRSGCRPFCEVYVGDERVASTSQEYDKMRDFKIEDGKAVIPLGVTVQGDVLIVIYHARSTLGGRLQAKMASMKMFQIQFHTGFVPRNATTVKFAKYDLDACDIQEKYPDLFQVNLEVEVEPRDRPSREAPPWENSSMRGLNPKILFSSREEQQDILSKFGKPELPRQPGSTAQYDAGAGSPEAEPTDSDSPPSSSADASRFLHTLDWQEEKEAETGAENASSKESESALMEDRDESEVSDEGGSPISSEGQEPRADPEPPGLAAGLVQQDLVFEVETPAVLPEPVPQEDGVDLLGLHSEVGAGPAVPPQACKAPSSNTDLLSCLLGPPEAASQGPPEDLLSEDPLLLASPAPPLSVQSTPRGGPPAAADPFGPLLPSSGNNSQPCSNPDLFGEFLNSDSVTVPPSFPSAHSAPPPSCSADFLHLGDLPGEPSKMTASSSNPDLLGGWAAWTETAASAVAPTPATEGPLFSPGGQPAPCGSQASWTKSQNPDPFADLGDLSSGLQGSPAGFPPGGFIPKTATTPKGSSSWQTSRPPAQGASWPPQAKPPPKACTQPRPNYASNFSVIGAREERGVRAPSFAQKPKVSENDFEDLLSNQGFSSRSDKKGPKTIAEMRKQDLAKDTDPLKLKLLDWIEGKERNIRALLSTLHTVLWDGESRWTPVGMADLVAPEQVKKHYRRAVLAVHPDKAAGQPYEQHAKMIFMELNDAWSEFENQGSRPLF", "assay": "GAK binding assay (T7 phage kinase competition binding)", "details": "for Kd: determined for selected compounds with % control <5 at 10 μM; for remaining binding at 10 µM: single concentration of 10 μM, lower numbers indicate stronger hits, read-out: % Ctrl", "method": "The compounds of the invention were assayed for their GAK kinase binding affinity using the protocols, as described in Fabian, M. A. et al. A small molecule-kinase interaction map for clinical kinase inhibitors. Nat. Biotechnol.\nT7 kinase-tagged phage strains were grown in parallel in 24- or 96-well blocks in an E. coli host derived from the BL21 strain. E. coli were grown to log phase and infected with T7 phage from a frozen stock (multiplicity of infection ˜0.1) and incubated with shaking at 32° C. until lysis (˜90 min). The lysates were centrifuged (6,000 g) and filtered ([…]) to remove cell debris. […] The liganded beads were blocked with excess biotin and washed with blocking buffer (SeaBlock (Pierce), 1% BSA, 0.05% Tween 20, 1 mM DTT) to remove unbound ligand and to reduce nonspecific phage binding. […] Test compounds were prepared as 1,000× stocks in DMSO and rapidly diluted into the aqueous environment (0.1% DMSO final). DMSO (0.1%) was added to control assays lacking a test compound. All reactions were carried out in polystyrene 96-well plates that had been pretreated with blocking buffer in a final volume of 0.1 ml. […] The phage titer in the eluates was measured by standard plaque assays or by quantitative PCR.\nThe compounds were tested at a single concentration of 10 μM.\n[formula] Binding Constant Measurements\nKd(probe) is the binding constant for the interaction between the kinase and the immobilized ligand, [Probe] is the concentration of the immobilized ligand and [test]1/2 is the concentration of the free test compound at the midpoint of the transition. If [Probe] is below Kd(probe) the expression simplifies to Kd(test)=[test]1/2. Under these conditions the binding constants measured for the interaction between kinases and test compounds (Kd(test)) are therefore independent of the affinity of the immobilized ligand for the kinase (Kd(probe)). T7 phage grow to a titer of 10^8-10^10 plaque forming units (PFU)/ml, and the concentration of phage-tagged kinase in the binding reaction is therefore in the low picomolar range. […] Clustering and visualization was performed with Cluster 3.0 (M. Eisen, Stanford University) and Mapletree software (M. Eisen, Stanford University; L. Simirenko, Lawrence Berkeley National Lab).", "data": [{"compound": "COc1ccc(-c2cnc3c(-c4ccccc4)snc3c2)cc1OC", "note": "[Example 82, 6-(3,4-dimethoxyphenyl)-3-phenylisothiazolo[4,3-b]pyridine]", "values": [{"measurement": "Kd", "value": 260, "unit": "nM"}, {"measurement": "remaining binding at 10 µM", "value": 0.15, "unit": "%"}]}, {"compound": "COc1ccc(-c2cnc3c(OC)snc3c2)cc1OC", "note": "[Example 36, 3-methoxy-6-(3,4-dimethoxyphenyl)-isothiazolo[4,3-b]pyridine]", "values": [{"measurement": "remaining binding at 10 µM", "value": 19, "unit": "%"}]}, {"compound": "Nc1snc2cc(Br)cnc12", "note": "[Example 3, 3-amino-6-bromo-Isothiazolo[4,3-b]pyridine]", "values": [{"measurement": "remaining binding at 10 µM", "value": 97, "unit": "%"}]}, {"compound": "COc1ccc(-c2cnc3c(N4CCC(=O)CC4)snc3c2)cc1OC", "note": "[Example 65, 1-(6-(3,4-dimethoxyphenyl)isothiazolo[4,3-b]pyridin-3-yl)piperidin-4-one]", "values": [{"measurement": "Kd", "value": 31, "unit": "nM"}, {"measurement": "remaining binding at 10 µM", "value": 0, "unit": "%"}]}, {"compound": "COc1ccc(-c2cnc3c(-c4ccncc4)snc3c2)cc1OC", "note": "[Example 83, 6-(3,4-dimethoxyphenyl)-3-(pyridin-4-yl)isothiazolo[4,3-b]pyridine]", "values": [{"measurement": "Kd", "value": 52, "unit": "nM"}, {"measurement": "remaining binding at 10 µM", "value": 0.05, "unit": "%"}]}, {"compound": "COC(=O)c1ccc(-c2cnc3c(N4CCOCC4)snc3c2)cc1", "note": "[Example 53, Methyl 4-(3-morpholinoisothiazolo[4,3-b]pyridin-6-yl)benzoate]", "values": [{"measurement": "remaining binding at 10 µM", "value": 9, "unit": "%"}]}, {"compound": "COc1ccc(-c2cnc3c(N4CCCC(O)C4)snc3c2)cc1OC", "note": "(stereo not shown) [Example 68, 1-(6-(3,4-dimethoxyphenyl)isothiazolo[4,3-b]pyridin-3-yl)piperidin-3-ol]", "values": [{"measurement": "Kd", "value": 69, "unit": "nM"}, {"measurement": "remaining binding at 10 µM", "value": 0.05, "unit": "%"}]}, {"compound": "CCOc1snc2cc(-c3cc(OC)c(OC)cc3Br)cnc12", "note": "[Example 87, 6-(2-bromo-4,5-dimethoxyphenyl)-3-ethoxyisothiazolo[4,3-b]pyridine]", "values": [{"measurement": "Kd", "value": 330, "unit": "nM"}, {"measurement": "remaining binding at 10 µM", "value": 4.3, "unit": "%"}]}, {"compound": "COc1ccc(-c2cnc3c(NCC(O)CO)snc3c2)cc1OC", "note": "(stereo not shown) [Example 71, 3-(6-(3,4-dimethoxyphenyl)isothiazolo[4,3-b]pyridin-3-ylamino)propane-1,2-diol]", "values": [{"measurement": "Kd", "value": 330, "unit": "nM"}, {"measurement": "remaining binding at 10 µM", "value": 2.6, "unit": "%"}]}, {"compound": "COc1ccc(-c2cnc3csnc3c2)cc1OC", "note": "[Example 85, 6-(3,4-dimethoxyphenyl)isothiazolo[4,3-b]pyridine]", "values": [{"measurement": "remaining binding at 10 µM", "value": 31, "unit": "%"}]}, {"compound": "CCOC(=O)N1CCC(Nc2snc3cc(-c4ccc(OC)c(OC)c4)cnc23)CC1", "note": "[Example 72, ethyl 4-(6-(3,4-dimethoxyphenyl)isothiazolo[4,3-b]pyridin-3-ylamino)piperidine-1-carboxylate]", "values": [{"measurement": "remaining binding at 10 µM", "value": 40, "unit": "%"}]}, {"compound": "COc1cccc(-c2cnc3c(N4CCOCC4)snc3c2)c1", "note": "[Example 61, 4-(6-(3-methoxyphenyl)isothiazolo[4,3-b]pyridin-3-yl)morpholine]", "values": [{"measurement": "Kd", "value": 180, "unit": "nM"}, {"measurement": "remaining binding at 10 µM", "value": 0.05, "unit": "%"}]}, {"compound": "COc1ccc(-c2cnc3c(NCCCCCO)snc3c2)cc1OC", "note": "[Example 67, 5-(6-(3,4-dimethoxyphenyl)isothiazolo[4,3-b]pyridin-3-ylamino)pentan-1-ol]", "values": [{"measurement": "Kd", "value": 210, "unit": "nM"}, {"measurement": "remaining binding at 10 µM", "value": 0.85, "unit": "%"}]}, {"compound": "COc1snc2cc(Br)cnc12", "note": "[Example 14, 3-methoxy-6-bromo-isothiazolo[4,3-b]pyridine]", "values": [{"measurement": "remaining binding at 10 µM", "value": 100, "unit": "%"}]}, {"compound": "Brc1cnc2c(N3CCOCC3)snc2c1", "note": "[Example 11, 6-bromo-3-morpholino-isothiazolo[4,3-b]pyridine]", "values": [{"measurement": "remaining binding at 10 µM", "value": 50, "unit": "%"}]}, {"compound": "CCN(CC)c1snc2cc(-c3ccc(OC)c(OC)c3)cnc12", "note": "[Example 79, 6-(3,4-dimethoxyphenyl)-N,N-diethylisothiazolo[4,3-b]pyridin-3-amine]", "values": [{"measurement": "Kd", "value": 210, "unit": "nM"}, {"measurement": "remaining binding at 10 µM", "value": 0.05, "unit": "%"}]}, {"compound": "6-bromo-6-ethanolamino-isothiazolo[4,3-b]pyridine [Example 12]", "values": [{"measurement": "% Ctrl", "setting": "10 µM", "value": 62, "unit": "%"}]}, {"compound": "CNC(=O)c1ccc(-c2cnc3c(N4CCOCC4)snc3c2)cc1", "note": "[Example 54, N-Methyl-4-(3-morpholinoisothiazolo[4,3-b]pyridin-6-yl)benzamide]", "values": [{"measurement": "Kd", "value": 88, "unit": "nM"}, {"measurement": "remaining binding at 10 µM", "value": 0.05, "unit": "%"}]}, {"compound": "COc1snc2cc(-c3cccnc3)cnc12", "note": "[Example 35, 3-methoxy-6-(3-pyridyl)-isothiazolo[4,3-b]pyridine]", "values": [{"measurement": "remaining binding at 10 µM", "value": 93, "unit": "%"}]}, {"compound": "COc1ccc(-c2cnc3c(N4CCOCC4)snc3c2)cc1", "note": "[Example 63, 4-(6-(4-methoxyphenyl)isothiazolo[4,3-b]pyridin-3-yl)morpholine]", "values": [{"measurement": "Kd", "value": 140, "unit": "nM"}, {"measurement": "remaining binding at 10 µM", "value": 0.6, "unit": "%"}]}, {"compound": "COc1snc2cc(-c3ccsc3)cnc12", "note": "[Example 37, 3-methoxy-6-(3-thienyl)-isothiazolo[4,3-b]pyridine]", "values": [{"measurement": "remaining binding at 10 µM", "value": 22, "unit": "%"}]}, {"compound": "COc1cc(Br)c(-c2cnc3c(N4CCOCC4)snc3c2)cc1OC", "note": "[Example 60, 4-(6-(2-bromo-4,5-dimethoxyphenyl)isothiazolo[4,3-b]pyridin-3-yl)morpholine]", "values": [{"measurement": "Kd", "value": 180, "unit": "nM"}, {"measurement": "remaining binding at 10 µM", "value": 1.1, "unit": "%"}]}, {"compound": "COc1ccc(-c2cnc3c(N4CCC5(CC4)OCCO5)snc3c2)cc1OC", "note": "[Example 81, 8-(6-(3,4-dimethoxyphenyl)isothiazolo[4,3-b]pyridin-3-yl)-1,4-dioxa-8-azaspiro[4.5]decane]", "values": [{"measurement": "remaining binding at 10 µM", "value": 12, "unit": "%"}]}, {"compound": "COc1ccc(-c2cnc3c(N4CCOCC4)snc3c2)cc1OC(C)=O", "note": "[Example 62, 2-methoxy-5-(3-morpholinoisothiazolo[4,3-b]pyridin-6-yl)phenyl acetate]", "values": [{"measurement": "Kd", "value": 82, "unit": "nM"}, {"measurement": "remaining binding at 10 µM", "value": 0, "unit": "%"}]}, {"compound": "COc1ccc(-c2cnc3c(-c4ccsc4)snc3c2)cc1OC", "note": "[Example 84, 6-(3,4-dimethoxyphenyl)-3-(thiophen-3-yl)isothiazolo[4,3-b]pyridine]", "values": [{"measurement": "Kd", "value": 140, "unit": "nM"}, {"measurement": "remaining binding at 10 µM", "value": 0, "unit": "%"}]}, {"compound": "COC(=O)c1ccc(-c2cnc3c(N4CCOCC4)snc3c2)cc1OC", "note": "[Example 46, Methyl 2-methoxy-4-(3-morpholinoisothiazolo[4,3-b]pyridin-6-yl)benzoate]", "values": [{"measurement": "Kd", "value": 19, "unit": "nM"}, {"measurement": "remaining binding at 10 µM", "value": 2.8, "unit": "%"}]}, {"compound": "COc1snc2cc(-c3ccccc3)cnc12", "note": "[Example 33, 3-methoxy-6-phenyl-isothiazolo[4,3-b]pyridine]", "values": [{"measurement": "remaining binding at 10 µM", "value": 9.4, "unit": "%"}]}, {"compound": "COc1cc(Br)c(-c2cnc3c(N4CCC(C)CC4)snc3c2)cc1OC", "note": "[Example 86, 6-(2-bromo-4,5-dimethoxyphenyl)-3-(4-methylpiperidin-1-yl)isothiazolo[4,3-b]pyridine]", "values": [{"measurement": "remaining binding at 10 µM", "value": 92, "unit": "%"}]}]}
